From ChEMBL document CHEMBL4184174 (Bioorg Med Chem Lett, 2018)

What was measured:
[1] = target: T1, Alkaline phosphatase, tissue-nonspecific isozyme (Homo sapiens, UniProt P05186); assay: Inhibition of TNAP (unknown origin) using PPi as substrate
T1 sequence (P05186 whole entry): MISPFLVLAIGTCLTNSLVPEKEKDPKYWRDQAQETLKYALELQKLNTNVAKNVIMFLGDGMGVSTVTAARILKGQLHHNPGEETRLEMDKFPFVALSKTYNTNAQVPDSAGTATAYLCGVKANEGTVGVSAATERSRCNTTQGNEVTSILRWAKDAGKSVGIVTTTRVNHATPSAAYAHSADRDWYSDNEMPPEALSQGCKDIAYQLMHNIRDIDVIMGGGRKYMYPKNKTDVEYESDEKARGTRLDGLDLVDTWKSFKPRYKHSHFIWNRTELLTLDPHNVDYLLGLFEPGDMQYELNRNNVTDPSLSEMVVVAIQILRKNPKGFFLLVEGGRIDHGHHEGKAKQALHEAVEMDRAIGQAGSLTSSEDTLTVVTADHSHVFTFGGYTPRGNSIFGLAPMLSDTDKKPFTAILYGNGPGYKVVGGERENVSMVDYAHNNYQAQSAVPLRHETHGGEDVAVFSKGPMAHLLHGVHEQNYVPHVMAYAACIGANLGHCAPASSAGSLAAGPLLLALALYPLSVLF

[2] = target: T1, Alkaline phosphatase, tissue-nonspecific isozyme; assay: Inhibition of TNAP (unknown origin) in whole blood using pNPP as substrate
[3] = Volume of distribution in mouse at 2 mg/kg, iv; assay type: ADME, organism-based; conditions: in vivo
[4] = system: Mus musculus; assay: Oral bioavailability in mouse at 10 mg/kg; assay type: ADME, organism-based; conditions: in vivo
[5] = Cmax in mouse at 10 mg/kg, po; assay type: ADME, organism-based; parameters: dose 10 mg/kg, route oral; conditions: in vivo
[6] = system: Mus musculus; assay: (§1) AUC in mouse at 10 mg/kg, po; assay type: ADME, organism-based; conditions: in vivo
[7] = Half life in mouse at 10 mg/kg, po; assay type: ADME, organism-based; conditions: in vivo
[8] = Clearance in mouse plasma at 2 mg/kg, iv; assay type: ADME, organism-based
[9] = as §1; assay type: ADME, organism-based; conditions: in vivo
[10] = target: Alkaline phosphatase, placental type (Homo sapiens, UniProt P05187); assay: Inhibition of PLAP (unknown origin)
[11] = target: Intestinal-type alkaline phosphatase (Homo sapiens, UniProt P09923); assay: Inhibition of IAP (unknown origin)
[12] = system: Mus musculus; assay: In vivo inhibition of TNAP in mouse plasma at 10 mg/kg, po administered as single dose after 8 hrs relative to control; assay type: functional
[13] = system: Mus musculus; assay: In vivo inhibition of TNAP in mouse plasma at 10 mg/kg, po administered as single dose measured at 24 hrs relative to control; assay type: functional

Alkaline phosphatase, placental type, sequence (P05187 whole entry): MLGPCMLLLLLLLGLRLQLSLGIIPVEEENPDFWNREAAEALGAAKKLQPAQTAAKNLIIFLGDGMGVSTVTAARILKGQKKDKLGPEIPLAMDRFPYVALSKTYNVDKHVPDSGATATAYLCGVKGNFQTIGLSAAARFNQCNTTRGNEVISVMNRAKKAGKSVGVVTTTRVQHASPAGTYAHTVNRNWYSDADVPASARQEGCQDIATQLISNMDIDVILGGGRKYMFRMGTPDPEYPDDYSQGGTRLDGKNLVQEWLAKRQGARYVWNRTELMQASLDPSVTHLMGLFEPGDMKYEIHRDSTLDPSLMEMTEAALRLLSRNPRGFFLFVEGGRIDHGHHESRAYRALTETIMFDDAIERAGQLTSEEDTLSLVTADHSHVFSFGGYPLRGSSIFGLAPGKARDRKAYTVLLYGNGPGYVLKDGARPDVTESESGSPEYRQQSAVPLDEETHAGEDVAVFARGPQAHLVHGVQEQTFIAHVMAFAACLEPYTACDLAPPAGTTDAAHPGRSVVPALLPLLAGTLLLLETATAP
Intestinal-type alkaline phosphatase, sequence (P09923 whole entry): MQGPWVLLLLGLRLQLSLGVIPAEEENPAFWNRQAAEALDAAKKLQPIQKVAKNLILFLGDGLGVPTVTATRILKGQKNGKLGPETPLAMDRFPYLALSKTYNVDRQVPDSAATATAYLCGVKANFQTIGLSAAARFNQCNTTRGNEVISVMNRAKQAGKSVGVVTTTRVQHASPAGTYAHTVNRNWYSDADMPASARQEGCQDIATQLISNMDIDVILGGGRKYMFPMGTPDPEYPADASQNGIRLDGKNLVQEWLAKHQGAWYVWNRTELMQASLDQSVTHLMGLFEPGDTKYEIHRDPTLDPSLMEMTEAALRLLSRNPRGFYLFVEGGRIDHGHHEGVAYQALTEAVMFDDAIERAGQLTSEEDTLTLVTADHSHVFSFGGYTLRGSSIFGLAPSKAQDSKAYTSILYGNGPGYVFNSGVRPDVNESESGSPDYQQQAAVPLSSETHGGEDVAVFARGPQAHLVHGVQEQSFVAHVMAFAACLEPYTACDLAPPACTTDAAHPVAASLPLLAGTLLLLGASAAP

SMILES	IC50 [1] [nM]	IC50 [2] [nM]	Vd [3] [L/kg]	F [4] [%]	Cmax [5] [µg/mL]	AUC [6] [µg·h/mL]	half-life [7] [h]	clearance [8] [mL/min/kg]	AUC [9] [µg·h/mL]	IC50 [10] [nM]	IC50 [11] [nM]	inhibition in vivo at 10 mg/kg [12] [%]	inhibition in vivo at 10 mg/kg [13] [%]
COc1ccc(-c2ccccc2)cc1S(=O)(=O)Nc1cccnc1	876	> 20000											
COc1ccc(Br)cc1S(=O)(=O)Nc1cncc(C(N)=O)c1			0.31	70	133	603	2.2						
COc1ccc(F)cc1S(=O)(=O)Nc1cncc(C(N)=O)c1			0.88	> 100	63		3.7	16.8	141				
COc1ccc(Cl)cc1S(=O)(=O)Nc1cncc(C(N)=O)c1		105	1.03	58	178	848	2.3			> 80000	> 80000	> 75	50
